“Also recorded” adds a separate entry of the source. Where two headings read alike, the source gives them in different places.
Tests used:
[1] = system: LuxR; conditions: cited from earlier work; for LuxR antagonism: 5 µM compound against 5 µM OHHL, negative values indicate potential activators, ref 6 (SI; Palmer et al., 2011); for LuxR [%] (agonism, activation): compounds at 200 μM, luminescence in V. fischeri ES114 (ΔluxI), ref Palmer et al., 2011 (main ref 44, SI ref 6)
[2] = system: ExpR2; conditions: cited from earlier work; for ExpR2 antagonism (percent inhibition): 5 µM compound against 5 µM OHHL, negative values indicate potential activators; for ExpR2 [%] (agonism, percent activation): compounds at 200 μM, cellulase activity in P. versatile AC5099, ref Palmer et al., 2011 (main ref 44, SI ref 6)
[3] = molecular target: T1, EsaR (Pantoea stewartii subsp. stewartii, UniProt P54293); experiment: cell-based; conditions: for activation at 100 µM / inhibition at 100 µM: 3.5 h; for activation at 100 µM: read-out: EsaR-activated (pesaS) [%] agonism; for inhibition at 100 µM: read-out: EsaR-activated (pesaS) antagonism; for EsaR antagonism, in words / EsaR agonism, in words: E. coli EsaR reporters; for EsaR antagonism, in words: competed against OHHL at approx. EC50; for EsaR agonism, in words: primary screen at 100 μM; for EsaR agonism at 100 μM (bound stated in text): E. coli EsaR reporter
T1 construct: expressed in transfected cells; host or cells: E. coli JLD271 (K12 ΔsdiA), arabinose-induced pJN105-esaR
T1 sequence (P54293 whole entry): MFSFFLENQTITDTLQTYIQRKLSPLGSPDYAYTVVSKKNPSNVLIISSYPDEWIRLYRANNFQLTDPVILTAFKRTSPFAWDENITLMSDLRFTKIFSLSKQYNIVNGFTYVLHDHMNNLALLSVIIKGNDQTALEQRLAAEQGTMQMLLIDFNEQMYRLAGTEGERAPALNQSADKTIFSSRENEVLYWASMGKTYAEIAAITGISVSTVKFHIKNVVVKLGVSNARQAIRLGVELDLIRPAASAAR
Text: (§1) EsaR transcriptional activation and repression were examined using E. coli and P. stewartii reporters (strains and plasmids listed in Table S1; see Methods section for assay details). […] We constructed reporters in E. coli based on previously reported EsaR reporters (Table S1). Each strain contained an EsaR expression plasmid (pJN105-esaR) and a reporter plasmid with either an EsaR-activated promoter (pesaS) or an EsaR-repressed promoter (pesaR) upstream of luxABCDE or GFP.
(§2) Gibson assembly was used to create all constructs. Plasmid pJN105-esaR was created by amplifying esaR from pAC-esaR and inserting it into pJN105. pesaSlux was created by inserting pesaS, amplified from pPesaR-AC:gfp, into the pCS-pesaRlux backbone. The pesaR promoter was amplified from pCS-pesaRlux and inserted into the pPesaR-AC:gfp backbone to create pesaR:GFP. P. stewartii reporter strains were created by transforming pesaR:GFP or pPesaR-AC:gfp into ESN51 by conjugation using E. coli S17 λpir as the donor strain. See SI for details of E. coli ExpR2 reporter construction.
(§3) Overnight cultures were diluted 1:10 in LB medium with appropriate antibiotics and grown at 37 °C (200 rpm) to an OD600 of 0.22–0.27 before induction with 4 mg mL^–1 arabinose. OD600 was measured by placing 200 μL of culture into a 96-well plate and reading optical density using the BioTek Synergy 2 plate reader. Assays were performed in technical triplicate in clear-bottom, white and clear-bottom, black 96-well microtiter plates (Corning Costar 3903 and 3904) for luminescence and fluorescence reporters, respectively. Compounds were dissolved in DMSO, and 2 μL of this stock, or DMSO as a negative control, was added to each well prior to adding 198 μL of induced culture. Plates were incubated at 37 °C (200 rpm) for 3.5 h. Each well was mixed by pipetting before reading OD600 and either luminescence or fluorescence. Single-point screens were performed with one or two biological replicates, and all dose–response curves were performed in biological triplicate. EC50 values were calculated based on a nonlinear regression of log(concentration) vs response (three parameters) using GraphPad Prism 9 software.

[4] = system: ExpR1; conditions: cited from earlier work; for ExpR1 antagonism: 5 µM compound against 5 µM OHHL, negative values indicate potential activators, ref 6 (SI; Palmer et al., 2011); for ExpR1 [%] (agonism, activation): compounds at 200 μM, cellulase activity in P. versatile AC5117, ref Palmer et al., 2011 (main ref 44, SI ref 6)
[5] = molecular target: T1, EsaR; experiment: cell-based; conditions: for activation at 100 µM / inhibition at 100 µM: 3.5 h; for activation at 100 µM: read-out: EsaR-repressed (pesaR) [%] agonism; for inhibition at 100 µM: read-out: EsaR-repressed (pesaR) antagonism
Text: as §1, §2, §3

[6] = ref 6 (SI; Palmer et al., 2011)

SMILES | LuxR antagonism [1] [%] | LuxR [%] (agonism, activation) [1] | ExpR2 antagonism (percent inhibition) [2, 6] [%] | ExpR2 [%] (agonism, percent activation) [2] | activation at 100 µM [3] [%] | inhibition at 100 µM [3] [%] | ExpR1 antagonism [4] [%] | ExpR1 [%] (agonism, activation) [4] | activation at 100 µM [5] [%] | inhibition at 100 µM [5] [%] | also measured
O=C(Cc1ccc(F)cc1)N[C@H]1CCOC1=O [C2] | 59 | 2 | 23 | 14 | 4 | -14 | 64 | 4 | -2 | -50 | –
O=C(NC1CCCC1)C1CCC1 [RN13] | – | – | – | – | – | – | – | – | – | – | EsaR antagonism, in words [3]: None of these compounds antagonized EsaR; EsaR agonism, in words [3]: moderate agonist
CCCCCC(=O)N[C@H]1CCOC1=O [HHL, hexanoyl HL, reference compound] | 69 | 2 | 12 | 94 | 100 | -96 | 67 | 5 | 98 | -126 | EsaR agonism, in words [3]: strongly activated
CCCCCCCCCCCC(=O)N[C@H]1CCOC1=O [dDHL, reference compound] | 73 | 1 | 62 | 31 | 45 | -63 | 77 | 0 | 35 | -27 | –
O=C(Cc1cccc(Br)c1)N[C@H]1CCOC1=O [C8] | 68 | 70 | 59 | 97 | 55 | -43 | 73 | 63 | 30 | -65 | –
O=C(/C=C/c1ccccc1)N[C@H]1CCOC1=O [B10] | 48 | 3 | 49 | 18 | 12 | -6 | 57 | 4 | -2 | 17 | –
CCCC(=O)NC1CCCC1 [RN4] | – | – | – | – | – | – | – | – | – | – | EsaR antagonism, in words [3]: None of these compounds antagonized EsaR
CCCCCCCCCC(=O)NC1CCCC1 [C10-CPA, reference compound] | – | – | – | – | – | – | – | – | – | – | EsaR antagonism, in words [3]: did not show antagonism; also recorded: None of these compounds antagonized EsaR
O=C1OCC[C@@H]1NS(=O)(=O)c1ccc(Cl)c(Cl)c1Cl [GAF 45] | – | – | – | – | – | – | – | – | – | – | EC50 [3]: 4.7 µM; EC50 [5]: 4.9 µM
COc1cccc(CC(=O)N[C@H]2CCOC2=O)c1 [E2] | 71 | 7 | 59 | 24 | 4 | 0 | 68 | 4 | 3 | -42 | –
CCCCCCCCCC(=O)CC(=O)Nc1ccccc1 [V-06–018, reference compound] | – | – | – | – | – | – | – | – | – | – | EsaR antagonism, in words [3]: inactive as EsaR antagonists; EsaR antagonism, in words, EsaR-repressed promoter ([5]; E. coli reporter, competed against OHHL at approx. EC50): inactive as EsaR antagonists
O=C(COc1ccc(I)cc1)NC1CCCC1 [RN17] | – | – | – | – | – | – | – | – | – | – | EsaR antagonism, in words [3]: None of these compounds antagonized EsaR
O=C(CCc1cccc([N+](=O)[O-])c1)N[C@H]1CCOC1=O [E38] | – | – | – | – | – | – | – | – | – | – | EC50 [3]: ≥ 64 µM
O=C(Cc1ccccc1)N[C@H]1CCOC1=O [C1] | 14 | 3 | 11 | 21 | 17 | -13 | 4 | 6 | 7 | -61 | –
CCCCCCCCCCCC(=O)CC(=O)N[C@H]1CCOC1=O [OtDHL, reference compound] | 5 | 4 | 7 | 9 | 16 | -41 | 4 | 1 | 13 | -53 | –
O=C1OCC[C@@H]1NS(=O)(=O)Cc1cccc(Br)c1 [GAF 41] | – | – | – | – | – | – | – | – | – | – | EsaR agonism at 100 μM (bound stated in text) [3]: ≤ 50%
Cc1ccc(CS(=O)(=O)N[C@H]2CCOC2=O)cc1 [GAF 13] | – | – | – | – | – | – | – | – | – | – | EsaR agonism at 100 μM (bound stated in text) [3]: ≤ 50%
O=C(Cc1cccc([N+](=O)[O-])c1)NC1CCCC1 [F18] | – | – | – | – | – | – | – | – | – | – | EsaR antagonism, in words [3]: None of these compounds antagonized EsaR
O=C1OCC[C@@H]1NS(=O)(=O)c1cc(Cl)cc(Cl)c1 [GAF 50] | – | – | – | – | – | – | – | – | – | – | EC50 [3]: 24 µM; EC50 [5]: 24 µM
O=C(Cc1ccc(I)cc1)N[C@H]1CCOC1=O [C10] | – | – | 68 | 19 | 7 | -5 | 73 | 6 | 0.4 | 25 | IC50 ([2]; previously reported phenotypic reporter data, ref 6 (SI; Palmer et al., 2011)): 0.9 µM
CC(C)CC(=O)NC1CCCC1 [RN20] | – | – | – | – | – | – | – | – | – | – | EsaR antagonism, in words [3]: None of these compounds antagonized EsaR
CC(=O)CC(=O)N[C@H]1CCOC1=O [OBHL, reference compound] | – | – | – | – | – | – | – | – | – | – | EC50 [5]: 97 µM
CCCS(=O)(=O)N[C@H]1CCOC1=O [A8] | – | – | – | – | – | – | – | – | – | – | EC50 [3]: ≥ 66 µM; EC50 [5]: ≥ 71 µM
O=C1OCC[C@@H]1NS(=O)(=O)Cc1cccc(Cl)c1 [GAF 33] | – | – | – | – | – | – | – | – | – | – | EsaR agonism at 100 μM (bound stated in text) [3]: ≤ 50%
CCCCCS(=O)(=O)N[C@H]1CCOC1=O [A10] | – | – | – | – | – | – | – | – | – | – | EC50 [3]: 17 µM; fold less potent than hexanoyl HL in EsaR ([3]; E. coli EsaR reporter EC50 values): about 3 fold; EC50 [5]: 17 µM

Source: publication PMC12459020, “Chemical Probes that Target a Dissociative LuxR-Type Quorum Sensing Receptor in Gram-Negative Bacteria” (ACS Chemical Biology, 2025)
